According to patent publication US20240018122A1, “PYRIDAZINYL AMINO DERIVATIVES AS ALK5 INHIBITORS” (CHIESI FARMACEUTICI S.P.A., priority 2020, published 2024):

What follows are molecules tested against human ALK5 (Homo sapiens (Human), UniProt P36897) (assay: ADP-GLO Kinases assay, inhibitory activity on ALK5). Conditions: purified recombinant human ALK5 2.6 nM, TGFβ1 peptide substrate, 25° C, 150 min incubation, ADP-Glo detection; read-out: ALK5 IC50.
Sequence of human ALK5 (P36897 80-503 limits assumed): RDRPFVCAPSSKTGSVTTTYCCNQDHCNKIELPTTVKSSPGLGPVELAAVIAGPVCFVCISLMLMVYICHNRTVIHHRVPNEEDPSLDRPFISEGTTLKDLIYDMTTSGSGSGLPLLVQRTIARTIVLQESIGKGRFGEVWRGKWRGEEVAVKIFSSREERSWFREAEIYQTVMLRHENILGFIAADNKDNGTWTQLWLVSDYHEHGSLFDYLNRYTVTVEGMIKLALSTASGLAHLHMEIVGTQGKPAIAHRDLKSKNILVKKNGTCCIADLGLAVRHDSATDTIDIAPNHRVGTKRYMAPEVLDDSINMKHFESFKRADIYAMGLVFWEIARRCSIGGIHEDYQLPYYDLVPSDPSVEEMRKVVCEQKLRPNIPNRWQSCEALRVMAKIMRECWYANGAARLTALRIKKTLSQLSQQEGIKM
Type: biochemical
Work on `CC(=O)N1CCCN(CCC(=O)Nc2cc(Nc3cnnc(-c4cc(Cl)ccc4F)c3)ccn2)C1` [Example 43, 3-(3-Acetyl-1,3-Diazinan-1-Yl)-N-(4-{[6-(5-Chloro-2-Fluorophenyl)Pyridazin-4-Yl]Amino}Pyridin-2-Yl)Propanamide] yielded an IC50 of 1 to 5 nM.
`CN1CCN(CCOc2ccc3c(Nc4cc(-c5cc(Cl)ccc5F)nnc4C(F)(F)F)ccnc3c2)CC1` [Example 183, N-[6-(5-Chloro-2-Fluorophenyl)-3-(Trifluoromethyl)Pyridazin-4-Yl]-7-[2-(4-Methylpiperazin-1-Yl)Ethoxy]Quinolin-4-Amine] was tested, and the IC50 was < 1 nM.
For `Cc1nnc(-c2cc(Cl)ccc2F)cc1Nc1ccnc(NC(=O)CCN2CCN(CCO)CC2)c1` [Example 80, N-(4-{[6-(5-Chloro-2-Fluorophenyl)-3-Methylpyridazin-4-Yl]Amino}Pyridin-2-Yl)-3-[4-(2-Hydroxyethyl)Piperazin-1-Yl]Propanamide], the IC50 was < 1 nM.
For `CNCCN1CCN(CC(=O)Nc2cc(Nc3cc(-c4cc(Cl)ccc4F)nnc3C)ccn2)CC1` [Example 106, N-(4-{[6-(5-Chloro-2-Fluorophenyl)-3-Methylpyridazin-4-Yl]Amino}Pyridin-2-Yl)-2-{4-[2-(Methylamino)Ethyl]Piperazin-1-Yl}Acetamide], the IC50 was < 1 nM.
For `COC(=O)C1CN(CCC(=O)Nc2cc(Nc3cc(-c4cc(Cl)ccc4F)nnc3C)ccn2)CCN1C(C)C` (stereo not shown) [Example 113, Methyl 4-{2-[(4-{[6-(5-Chloro-2-Fluorophenyl)-3-Methylpyridazin-4-Yl]Amino}Pyridin-2-Yl)Carbamoyl]Ethyl}-1-(Propan-2-Yl)Piperazine-2-Carboxylate], the IC50 was < 1 nM.
For `Cc1nnc(-c2cc(Cl)ccc2F)cc1Nc1ccnc2[nH]c(C(=O)N(C)CCN3CCN(C)CC3)cc12` [Example 50, 4-{[6-(5-Chloro-2-Fluorophenyl)-3-Methylpyridazin-4-Yl]Amino}-N-Methyl-N-[2-(4-Methylpiperazin-1-Yl)Ethyl]-1H-Pyrrolo[2,3-b]Pyridine-2-Carboxamide], the IC50 was < 1 nM.
`Cc1nnc(-c2cc(Cl)ccc2F)cc1Nc1ccnc(NC(=O)CN2CCN(C)CC2)c1` [Example 172, N-(4-{[6-(5-Chloro-2-Fluorophenyl)-3-Methylpyridazin-4-Yl]Amino}Pyridin-2-Yl)-2-(4-Methylpiperazin-1-Yl)Acetamide] was tested, and the IC50 was < 1 nM.
For `CN1CCC(CCN2CCN(C(=O)Oc3ccc4c(Nc5cnnc(-c6cc(Cl)ccc6F)c5)ccnc4c3)CC2)CC1` [Example 64, 4-{[6-(5-Chloro-2-Fluorophenyl)Pyridazin-4-Yl]Amino}Quinolin-7-Yl 4-[2-(1-Methylpiperidin-4-Yl)Ethyl]Piperazine-1-Carboxylate], the IC50 was < 1 nM.
`CN1CCC2(CC1)CN(C(=O)Oc1ccc3c(Nc4cnnc(-c5cc(Cl)ccc5F)c4)ccnc3c1)C2` [Example 115, 4-{[6-(5-Chloro-2-Fluorophenyl)Pyridazin-4-Yl]Amino}Quinolin-7-Yl 7-Methyl-2,7-Diazaspiro[3.5]Nonane-2-Carboxylate] was tested, and the IC50 was < 1 nM.
With `Cc1nnc(-c2cc(Cl)ccc2F)cc1Nc1ccnc(NC(=O)CCN2CCN(C)CC2)c1` [Example 16, N-(4-{[6-(5-chloro-2-fluorophenyl)-3-methylpyridazin-4-yl]amino}pyridin-2-yl)-3-(4-methylpiperazin-1-yl)propanamide] the IC50 was < 1 nM.
With `COC(=O)N(C)CCN1CCN(CC(=O)Nc2cc(Nc3cc(-c4cc(Cl)ccc4F)nnc3C)ccn2)CC1` [Example 107, Methyl N-[2-(4-{[(4-{[6-(5-Chloro-2-Fluorophenyl)-3-Methylpyridazin-4-Yl]Amino}Pyridin-2-Yl)Carbamoyl]Methyl}Piperazin-1-Yl)Ethyl]-N-Methylcarbamate] the IC50 was < 1 nM.
`Fc1ccc(Cl)cc1-c1cc(Nc2ccncc2)c(C(F)(F)F)nn1` [Example 181] was tested, and the IC50 was < 1 nM.
In the case of `COC(=O)[C@H]1CC[C@H](c2nnc(-c3cc(Cl)ccc3F)cc2Nc2ccnc(NC(=O)CCN3CCN(C)CC3)c2)CC1` [Example 189, methyl trans-4-(6-(5-chloro-2-fluorophenyl)-4-((2-(3-(4-methylpiperazin-1-yl)propanamido)pyridin-4-yl)amino)pyridazin-3-yl)cyclohexane-1-carboxylate], the IC50 is reported as < 1 nM.
For `Cc1nnc(-c2cc(Cl)ccc2F)cc1Nc1ccnc(NC(=O)CN2CCN(C)C3(CC3)C2)c1` [Example 144, N-(4-{[6-(5-Chloro-2-Fluorophenyl)-3-Methylpyridazin-4-Yl]Amino}Pyridin-2-Yl)-2-{4-Methyl-4,7-Diazaspiro[2.5]Octan-7-Yl}Acetamide], the IC50 was < 1 nM.
With `CC(C)c1ccc(F)c(-c2cc(Nc3ccnc4cc(OCCN5CCN(C)CC5)ccc34)cnn2)c1` [Example 37, N-{6-[2-Fluoro-5-(Propan-2-Yl)Phenyl]Pyridazin-4-Yl}-7-[2-(4-Methylpiperazin-1-Yl)Ethoxy]Quinolin-4-Amine] the IC50 was < 1 nM.
In the case of `CNC(=O)CCN1CCN(CCOc2ccc3c(Nc4cnnc(-c5cc(Cl)ccc5F)c4)ccnc3c2)CC1` [Example 63, 3-(4-{2-[(4-{[6-(5-Chloro-2-Fluorophenyl)Pyridazin-4-Yl]Amino}Quinolin-7-Yl)Oxy]Ethyl}Piperazin-1-Yl)-N-Methylpropanamide], the IC50 is reported as < 1 nM.
With `Cc1nnc(-c2cc(Cl)ccc2F)cc1Nc1ccnc(NC(=O)CCN2CCC(F)(F)CC2)c1` [Example 139, N-(4-{[6-(5-Chloro-2-Fluorophenyl)-3-Methylpyridazin-4-Yl]Amino}Pyridin-2-Yl)-3-(4,4-Difluoropiperidin-1-Yl)Propanamide] the IC50 was < 1 nM.
`Cc1nnc(-c2cc(Cl)ccc2F)cc1Nc1ccnc2cc(OC(=O)N3CC(N4CCCC4)C3)ccc12` [Example 152, 4-{[6-(5-Chloro-2-Fluorophenyl)-3-Methylpyridazin-4-Yl]Amino}Quinolin-7-Yl 3-(Pyrrolidin-1-Yl)Azetidine-1-Carboxylate] was tested, and the IC50 was < 1 nM.
With `Cc1nnc(-c2cc(Cl)ccc2F)cc1Nc1ccnc(NC(=O)CCN2CCN(C)C(C)C2)c1` (stereo not shown) [Example 145, N-(4-{[6-(5-Chloro-2-Fluorophenyl)-3-Methylpyridazin-4-Yl]Amino}Pyridin-2-Yl)-3-(3,4-Dimethylpiperazin-1-Yl)Propanamide] the IC50 was < 1 nM.
`CN1CCN(CCC(=O)Nc2cc(Nc3cnnc(-c4cc(Cl)ccc4F)c3)ccn2)C(=O)C1` [Example 22, N-(4-{[6-(5-Chloro-2-Fluorophenyl)Pyridazin-4-Yl]Amino}Pyridin-2-Yl)-3-(4-Methyl-2-Oxopiperazin-1-Yl)Propanamide] showed an IC50 of 1 to 5 nM.
With `Cc1nnc(-c2cc(Cl)ccc2F)cc1Nc1ccnc(NC(=O)c2cnn(CCN(C)C)c2)c1` [Example 156, N-(4-{[6-(5-Chloro-2-Fluorophenyl)-3-Methylpyridazin-4-Yl]Amino}Pyridin-2-Yl)-1-[2-(Dimethylamino)Ethyl]-1H-Pyrazole-4-Carboxamide] the IC50 was < 1 nM.
In the case of `CN1CCN(CCOc2ccc3c(Nc4cc(-c5cc(Cl)ccc5F)nnc4CO)ccnc3c2)CC1` [Example 177, [6-(5-Chloro-2-Fluorophenyl)-4-({7-[2-(4-Methylpiperazin-1-Yl)Ethoxy]Quinolin-4-Yl}Amino)Pyridazin-3-Yl]Methanol], the IC50 is reported as < 1 nM.
